The experiment relates to primary rat mixed cortical cells. Briefly: In vitro myelination assay (MBP positive myelin strands, fold myelin pixels above background). As to conditions: Rattus norvegicus, read-out: Fold myelin pixels above background relative to baseline of no added compound; for fold induction at 1 µM: 1.0 μM compound; for fold induction at 10 µM: 10.0 μM compound. The experiment is classed as cell-based. The gist of the method:
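P1 rat mixed cortical cultures (neurons, OPCs, oligodendrocytes, astrocytes, microglia) grown 14 days at 37 °C with compound, half-medium refreshed with compound on days 6 and 10. Fixed cells stained for MBP; MBP-positive myelin strand pixels per well quantified by automated imaging, reported as fold over no-compound baseline at 1.0 and 10.0 μM.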

Turning to `Cc1cc(Nc2ncn(-c3cc(F)cc(F)c3)n2)cc(NC2CCCCC2N2CCOCC2)c1` (stereo not shown) [Compound 939, N3-[1-(3,5-difluorophenyl)-1,2,4-triazol-3-yl]-5-methyl-N1-(2-morpholinocyclohexyl)benzene-1,3-diamine], the fold induction at 1 µM lay in the range of 1 to 10 and the fold induction at 10 µM was not above 1.
For the molecule `Cc1cc(NCCN2CC[S+]([O-])CC2)cc(Nc2ncn(-c3cc(F)cc(F)c3)n2)c1` [Compound 940, N1-[1-(3,5-difluorophenyl)-1,2,4-triazol-3-yl]-5-methyl-N3-[2-(1-oxo-1,4-thiazinan-4-yl)ethyl]benzene-1,3-diamine], the fold induction at 1 µM fell in the range of 10 to 100 and the fold induction at 10 µM fell in the range of 1 to 10.
For `Cc1cc(Nc2ncn(-c3cc(F)cc(F)c3)n2)cc(N2CCN(CC(C)(C)O)C(C)C2)c1` (stereo not shown) [Compound 941, 1-[4-[3-[[1-(3,5-difluorophenyl)-1,2,4-triazol-3-yl]amino]-5-methyl-phenyl]-2-methyl-piperazin-1-yl]-2-methyl-propan-2-ol], the fold induction at 1 µM was in the range of 1 to 10 and the fold induction at 10 µM was in the range of 1 to 10.
For the molecule `Cc1cc(NCC2CC2)cc(Nc2ncn(-c3cc(F)cc(F)c3)n2)c1` [Compound 942, N3-(cyclopropylmethyl)-N1-[1-(3,5-difluorophenyl)-1,2,4-triazol-3-yl]-5-methyl-benzene-1,3-diamine], the fold induction at 1 µM is 1 to 10 and the fold induction at 10 µM is not above 1.
With `Cc1cc(Nc2ncn(-c3cc(F)cc(F)c3)n2)cc(N2CCN(CCN3CCCC3)CC2)c1` [Compound 944, 1-(3,5-difluorophenyl)-N-[3-methyl-5-[4-(2-pyrrolidin-1-ylethyl)piperazin-1-yl]phenyl]-1,2,4-triazol-3-amine], the fold induction at 1 µM lay in the range of 1 to 10 and the fold induction at 10 µM was not above 1.
As to `Cc1cc(Nc2ncn(-c3cc(F)cc(F)c3)n2)cc(N2CCN(CCCN3CCCC3)CC2)c1` [Compound 945, 1-(3,5-difluorophenyl)-N-[3-methyl-5-[4-(3-pyrrolidin-1-ylpropyl)piperazin-1-yl]phenyl]-1,2,4-triazol-3-amine], the fold induction at 1 µM lay within 1 to 10 and the fold induction at 10 µM was not above 1.
Regarding `Cc1cc(NCC2CN(C(CO)CO)C2)cc(Nc2ncn(-c3cc(F)cc(F)c3)n2)c1` [Compound 946, 2-[3-[[3-[[1-(3,5-difluorophenyl)-1,2,4-triazol-3-yl]amino]-5-methyl-anilino]methyl]azetidin-1-yl]propane-1,3-diol], the fold induction at 1 µM is not above 1 and the fold induction at 10 µM was not above 1.
With `[2H]C1([2H])N(CC)C([2H])([2H])C([2H])([2H])N(c2cc(C)cc(Nc3ncn(-c4cc(F)cc(F)c4)n3)c2)C1([2H])[2H]` [Compound 947, 1-(3,5-difluorophenyl)-N-[3-methyl-5-(2,2,3,3,5,5,6,6-octadeuterio-4-ethyl-piperazin-1-yl)phenyl]-1,2,4-triazol-3-amine], the fold induction at 1 µM is 1 to 10 and the fold induction at 10 µM is not above 1.
For `Cc1cc(Nc2ncn(-c3cc(F)cc(F)c3)n2)cc(N2CCC(N(C)C)CC2)c1` [Compound 948, 1-[3-[[1-(3,5-difluorophenyl)-1,2,4-triazol-3-yl]amino]-5-methyl-phenyl]-N,N-dimethyl-piperidin-4-amine] the same measures were 10 to 100 and not above 1.
`Cc1cc(Nc2ncn(-c3cc(F)cc(F)c3)n2)cc(N2CCN(CC3COCCO3)CC2)c1` (stereo not shown) [Compound 949, 1-(3,5-difluorophenyl)-N-[3-[4-(1,4-dioxan-2-ylmethyl)piperazin-1-yl]-5-methyl-phenyl]-1,2,4-triazol-3-amine]: the fold induction at 1 µM fell in the range of 10 to 100 and the fold induction at 10 µM fell in the range of 10 to 100.
As for `Cc1cc(Nc2ncn(-c3cc(F)cc(F)c3)n2)cc(N2CCC(OCCF)CC2)c1` [Compound 950, 1-(3,5-difluorophenyl)-N-[3-[4-(2-fluoroethoxy)-1-piperidyl]-5-methyl-phenyl]-1,2,4-triazol-3-amine], the fold induction at 1 µM was in the range of 10 to 100 and the fold induction at 10 µM fell in the range of 1 to 10.
For `Cc1cc(NCC2(N3CCOCC3)CC2)cc(Nc2ncn(-c3cc(F)cc(F)c3)n2)c1` [Compound 951, N1-[1-(3,5-difluorophenyl)-1,2,4-triazol-3-yl]-5-methyl-N3-[(1-morpholinocyclopropyl)methyl]benzene-1,3-diamine] the same measures were 1 to 10 and not above 1.
Take `Cc1cc(Nc2ncn(-c3cnccn3)n2)c(F)c(OC2CCOC2)c1` (stereo not shown) [Compound 952, N-(2-fluoro-5-methyl-3-tetrahydrofuran-3-yloxy-phenyl)-1-pyrazin-2-yl-1,2,4-triazol-3-amine]: the fold induction at 1 µM lay within 1 to 10 and the fold induction at 10 µM lay in the range of 1 to 10.
Take `Cc1cc(NC2CCOC2)cc(Nc2ncn(-c3cc(F)cc(F)c3)n2)c1F` (stereo not shown) [Compound 953, N3-[1-(3,5-difluorophenyl)-1,2,4-triazol-3-yl]-4-fluoro-5-methyl-N1-tetrahydrofuran-3-yl-benzene-1,3-diamine]: the fold induction at 1 µM was 1 to 10 and the fold induction at 10 µM was in the range of 1 to 10.
As to `Cc1cc(Nc2ncn(-c3cc(F)cc(F)c3)n2)cc(N2CCOC(CN3CCN(C)CC3)C2)c1` (stereo not shown) [Compound 954, 1-(3,5-difluorophenyl)-N-[3-methyl-5-[2-[(4-methylpiperazin-1-yl)methyl]morpholin-4-yl]phenyl]-1,2,4-triazol-3-amine], the fold induction at 1 µM was 1 to 10 and the fold induction at 10 µM is not above 1.
For `Cc1cc(Nc2ncn(-c3cccc(F)c3)n2)c(F)c(N2CCN(C3COC3)CC2)c1` [Compound 955, N-[2-fluoro-5-methyl-3-[4-(oxetan-3-yl)piperazin-1-yl]phenyl]-1-(3-fluorophenyl)-1,2,4-triazol-3-amine], the fold induction at 1 µM was 10 to 100 and the fold induction at 10 µM was in the range of 1 to 10.
Take `Cc1cc(Nc2ncn(-c3cc(F)cc(F)c3)n2)cc(N2CCN(C3CCN(C)CC3)CC2)c1` [Compound 956, 1-(3,5-difluorophenyl)-N-[3-methyl-5-[4-(1-methyl-4-piperidyl)piperazin-1-yl]phenyl]-1,2,4-triazol-3-amine]: the fold induction at 1 µM is not above 1 and the fold induction at 10 µM was not above 1.
Take `CCC(O)CN1CCN(c2cc(C)cc(Nc3ncn(-c4cc(F)cc(F)c4)n3)c2)CC1` (stereo not shown) [Compound 957, 1-[4-[3-[[1-(3,5-difluorophenyl)-1,2,4-triazol-3-yl]amino]-5-methyl-phenyl]piperazin-1-yl]butan-2-ol]: the fold induction at 1 µM was 10 to 100 and the fold induction at 10 µM is not above 1.
On to `Cc1cc(Nc2ncn(-c3cc(F)cc(F)c3)n2)cc(N2CCOC(CCO)C2)c1` (stereo not shown) [Compound 958, 2-[4-[3-[[1-(3,5-difluorophenyl)-1,2,4-triazol-3-yl]amino]-5-methyl-phenyl]morpholin-2-yl]ethanol], for which the fold induction at 1 µM was in the range of 10 to 100 and the fold induction at 10 µM is not above 1.
Take `[2H]C([2H])([2H])C(=O)N1C([2H])([2H])C([2H])([2H])N(c2cc(C)cc(Nc3ncn(-c4cc(F)cc(F)c4)n3)c2)C([2H])([2H])C1([2H])[2H]` [Compound 959, 2,2,2-trideuterio-1-[2,2,3,3,5,5,6,6-octadeuterio-4-[3-[[1-(3,5-difluorophenyl)-1,2,4-triazol-3-yl]amino]-5-methyl-phenyl]piperazin-1-yl]ethanone]: the fold induction at 1 µM was 1 to 10 and the fold induction at 10 µM is not above 1.

Values taken from patent US10766869B2, “Triazoles for the treatment of demyelinating dieases” (Vertex Pharmaceuticals Incorporated, priority 2015, dated 2020).
